The values that follow come from article PMC4875998, “Liposomal Systems as Nanocarriers for the Antiviral Agent Ivermectin” (International Journal of Biomaterials, 2016).

The nature of data set [1]: Cytotoxicity (methylene blue / MTS assay), CC50. The following applies: hamster, BHK cells. (In general: Tetrazolium dyes change colour on reduction, which living cells bring about.)
Data set [2] can be described thus: Cytotoxicity (methylene blue / MTS assay), CC50. The settings on record: African green monkey, Vero-118 cells.
Data set [3] is described as follows: Cytotoxicity (methylene blue / MTS assay), CC50. The following applies: mouse, RAW 264.7 cells.
A short description of data set [4]: Cytotoxicity (methylene blue / MTS assay), CC50. The settings on record: African green monkey, Vero-F cells.
The subject of a further data set is Japanese encephalitis. The arrangement: method as in PMID 22535622. The following applies: in vitro; cited from earlier work.
Another data set concerns Vero-118 cells. Description: Cytotoxicity (methylene blue / MTS assay), CC50. The settings on record: cell lines of Figure 6(b) / Table 2 (Vero-118, BHK, RAW).
The test system of another data set is Dengue Fever. Also noted: method as in PMID 22535622. The following applies: in vitro; cited from earlier work.
Data set [5] deals with tick-borne encephalitis viruses. The settings on record: in vitro; cited from earlier work.
The test system of a further data set is Yellow Fever. The following applies: in vitro; cited from earlier work.
Another data set in a line: Cytotoxicity, CC50. The settings on record: human, Half maximal cytotoxic concentration (CC50) Huh-7, Huh-7 cells; value not marked with the 48 h footnote.
Another data set concerns Huh-7 cells. Description: Cytotoxicity, CC50. The settings on record: read-out: Half maximal cytotoxic concentration (CC50) Huh-7; Huh-7 cells; value not marked with the 48 h footnote.

Regarding `C[C@@]1(O)[C@H](O)[C@@H](CO)O[C@H]1n1ccc(N)nc1=O` [2-cmc, 2′-c-Methylcytidine], the values for the CC50 at 4 days in data set [1], in data set [2] and in [3] were 238 µM, 117 µM and 37.6 µM, respectively.

For the compound `CC[C@H](C)[C@H]1O[C@]2(CC[C@@H]1C)C[C@@H]1C[C@@H](C/C=C(\C)[C@@H](O[C@H]3C[C@H](OC)[C@@H](O[C@H]4C[C@H](OC)[C@@H](O)[C@H](C)O4)[C@H](C)O3)[C@@H](C)/C=C/C=C3\CO[C@@H]4[C@H](O)C(C)=C[C@@H](C(=O)O1)[C@]34O)O2` [Ivermectin, 22,23-dihydroavermectin B1], the CC50 at 4 days in [4] came to 23.6 µM; in data set [1], 1.5 µM; in data set [2] it was 5.7 µM; in [3], 0.8 µM. In addition, the EC50 result in the data set on Japanese encephalitis is given as “submicromolar”; with Dengue Fever, “submicromolar”; in data set [5], “submicromolar”; in the data set on Yellow Fever, “subnanomolar range”. Also, the “Times more cytotoxic in comparison to 2-cmc” value in the data set on Vero-118 cells amounted to 10 times. For the same compound, the CC50 stood at 7.3 µM in “Cytotoxicity, CC50” and 10 µM with Huh-7 cells.
